Experiment [1] deals with D(2) dopamine receptor (Rattus norvegicus, UniProt P61169). Nature of the experiment: biochemical.
Description: Displacement of [3H]spiperone from rat dopamine D2L receptor expressed in HEK293 cells
For experiment [2], the species on record is Rattus norvegicus. Briefly: Selectivity for rat dopamine D3 receptor over rat dopamine D2L receptor.
In experiment [3] the target is D(3) dopamine receptor (Rattus norvegicus, UniProt P19020). Nature of the experiment: biochemical.
Description: Displacement of [3H]spiperone from rat dopamine D3 receptor expressed in HEK293 cells
Experiment [4] deals with T1, D(2) dopamine receptor (Homo sapiens, UniProt P14416). Nature of the experiment: Agonist activity at human dopamine D2L receptor expressed in CHO cells assessed as stimulation of [35S]GTPgammaS binding relative to dopamine. Type of experiment: functional, cell-based. On the technique in general: GTPγS resists hydrolysis and so accumulates on activated G proteins.
T1 sequence (P14416 whole entry): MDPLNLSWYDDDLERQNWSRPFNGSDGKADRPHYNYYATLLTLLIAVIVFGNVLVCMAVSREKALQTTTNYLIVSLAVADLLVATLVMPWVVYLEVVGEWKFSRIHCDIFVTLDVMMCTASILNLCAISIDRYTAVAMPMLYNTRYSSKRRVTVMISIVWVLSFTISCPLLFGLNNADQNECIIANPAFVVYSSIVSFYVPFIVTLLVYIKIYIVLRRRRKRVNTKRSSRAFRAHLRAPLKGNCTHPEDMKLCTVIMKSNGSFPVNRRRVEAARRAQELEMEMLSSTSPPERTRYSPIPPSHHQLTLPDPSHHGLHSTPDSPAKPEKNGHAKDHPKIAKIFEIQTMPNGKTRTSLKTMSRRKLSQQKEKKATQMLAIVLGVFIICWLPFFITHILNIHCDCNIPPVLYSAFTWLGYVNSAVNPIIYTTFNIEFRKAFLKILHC
For experiment [5], the system named is Rattus norvegicus. Nature of the experiment: Induction of rotational activity in subcutaneously dosed 6-hydroxydopamine unilaterally lesioned rat assessed as contralateral rotation. The class given is functional, organism-based.
Experiment [6] has as its system Rattus norvegicus. Nature of the experiment: Induction of rotational activity in 6-hydroxydopamine unilaterally lesioned rat assessed as number of contralateral rotation at 5 umol/kg, sc after […]. The class given is functional.
Experiment [7] relates to Rattus norvegicus. Nature of the experiment: Induction of rotational activity in 6-hydroxydopamine unilaterally lesioned rat assessed as number of contralateral rotation at 2.5 umol/kg, sc after 8 hrs. The class given is functional.
For experiment [8], the target named is D(3) dopamine receptor (Homo sapiens, UniProt P35462).
Sequence of D(3) dopamine receptor (Homo sapiens, UniProt P35462) (P35462 whole entry): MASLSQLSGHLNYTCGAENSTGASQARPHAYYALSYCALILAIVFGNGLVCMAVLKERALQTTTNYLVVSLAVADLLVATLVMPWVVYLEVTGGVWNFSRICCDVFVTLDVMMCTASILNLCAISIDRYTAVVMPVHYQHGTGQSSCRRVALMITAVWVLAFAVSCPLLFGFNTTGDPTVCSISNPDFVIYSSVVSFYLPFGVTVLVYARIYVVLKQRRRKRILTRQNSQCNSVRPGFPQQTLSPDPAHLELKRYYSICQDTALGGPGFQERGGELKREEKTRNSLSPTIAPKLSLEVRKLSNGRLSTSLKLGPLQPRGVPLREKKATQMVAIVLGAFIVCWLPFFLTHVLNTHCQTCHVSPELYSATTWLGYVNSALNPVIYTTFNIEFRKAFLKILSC
Description: Agonist activity at human dopamine D3 receptor expressed in mouse ATt-20 cells assessed as stimulation of [35S]GTPgammaS binding
In experiment [9] the target is T1, D(2) dopamine receptor.

Sequence of D(2) dopamine receptor (Rattus norvegicus, UniProt P61169) (P61169 whole entry): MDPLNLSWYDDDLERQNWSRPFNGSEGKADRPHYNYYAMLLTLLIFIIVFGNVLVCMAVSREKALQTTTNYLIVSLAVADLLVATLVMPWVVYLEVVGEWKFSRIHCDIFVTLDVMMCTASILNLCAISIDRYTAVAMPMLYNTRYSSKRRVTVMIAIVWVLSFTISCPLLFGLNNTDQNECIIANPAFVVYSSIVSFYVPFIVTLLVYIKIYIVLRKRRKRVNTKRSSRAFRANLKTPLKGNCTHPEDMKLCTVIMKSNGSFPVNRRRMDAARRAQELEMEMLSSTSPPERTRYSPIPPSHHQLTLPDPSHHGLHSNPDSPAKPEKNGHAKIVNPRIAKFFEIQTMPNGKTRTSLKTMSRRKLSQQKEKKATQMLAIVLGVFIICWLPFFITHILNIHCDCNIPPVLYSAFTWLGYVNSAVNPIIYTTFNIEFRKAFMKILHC
Sequence of D(3) dopamine receptor (Rattus norvegicus, UniProt P19020) (P19020 whole entry): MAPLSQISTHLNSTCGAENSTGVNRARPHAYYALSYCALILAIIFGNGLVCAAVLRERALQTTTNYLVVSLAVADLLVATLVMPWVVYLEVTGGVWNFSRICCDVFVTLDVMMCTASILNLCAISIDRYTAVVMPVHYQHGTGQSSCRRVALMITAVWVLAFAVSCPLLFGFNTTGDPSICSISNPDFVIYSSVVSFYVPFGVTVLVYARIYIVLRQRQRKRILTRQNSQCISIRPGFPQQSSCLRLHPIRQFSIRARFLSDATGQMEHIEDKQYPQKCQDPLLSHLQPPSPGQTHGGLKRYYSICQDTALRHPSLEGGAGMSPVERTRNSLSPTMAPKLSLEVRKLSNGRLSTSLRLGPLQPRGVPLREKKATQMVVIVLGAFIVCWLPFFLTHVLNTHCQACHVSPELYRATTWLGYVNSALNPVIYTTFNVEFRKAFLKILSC

Usually Ki stands for a measure of affinity in units of concentration, obtained from inhibition or displacement. Higher therefore signals weaker binding. For `CCCN(CCN1CCN(c2ccccc2)CC1)C1CCc2ccc(O)cc2C1` (stereo not drawn), the Ki in experiment [1] is 142 nM; in [3] it was 1.56 nM. Also, the Ratio Ki in experiment [2] was determined as 91.

For `CCCN(CCN1CCN(c2ccccc2)CC1)C1CCc2nnsc2C1` (stereo not drawn), the figures for the Ki in experiment [1] and in experiment [3] were 746 nM and 160 nM, respectively. Moreover, in experiment [2], the Ratio Ki worked out at 4.66.

Take `CCCN(CCN1CCN(c2ccccc2)CC1)C1CCc2nn[se]c2C1` (stereo not drawn): the results for the Ki in [1] and in experiment [3] were 189 nM and 40.7 nM, respectively. Further, the Ratio Ki in experiment [2] is 4.64.

As to `CCCN(CCN1CCN(c2ccccc2)CC1)C1CCc2c[nH]nc2C1` (stereo not drawn), the Ki amounted to 2570 nM in experiment [1] and 188 nM in [3]. Besides, the Ratio Ki in experiment [2] worked out at 13.7.

`CCCN(CCCCN1CCN(c2ccccc2)CC1)C1CCc2nc(N)sc2C1` (stereo not drawn): the Ki turned out to be 769 nM in experiment [1] and 12.4 nM in experiment [3]. The Ratio Ki in experiment [2] was found to be 62.

As for `C#CCN(CCN1CCN(c2cccc(Cl)c2Cl)CC1)C1CCc2nc(N)sc2C1` (stereo not drawn), the inhibition constant (Ki) in experiment [1] came out at 34.9 nM; in [3] it was 7.1 nM. Also, the Ratio Ki in [2] was 4.92.

Turning to `CCCN(CCN1CCN(c2ccccc2)CC1)C1CCc2[nH]ncc2C1` (stereo not drawn), the Ki in experiment [1] was determined as 1830 nM; in [3] it was 46.7 nM. In addition, in [2], the Ratio Ki amounted to 39.3.

As for `CCCN(CCN1CCN(c2ccccc2)CC1)C1CCc2oncc2C1` (stereo not drawn), the Ki in experiment [1] was found to be 915 nM; in experiment [3], 155 nM. Besides, the Ratio Ki in [2] turned out to be 5.9.

Take `CCCN(CCN1CCN(c2ccccc2)CC1)C1CCc2nocc2C1` (stereo not drawn): the Ki stood at 813 nM in [1] and 254 nM in experiment [3]. The Ratio Ki in experiment [2] stood at 3.2.

For the compound `C#CCN(CCN1CCN(c2ccccc2OC)CC1)C1CCc2nc(N)sc2C1` (stereo not drawn), the Ki in experiment [1] stood at 81.2 nM; in experiment [3] it was 34.8 nM. In addition, the Ratio Ki in [2] was 2.33.

As usually defined, the Emax is the size of the effect at its maximum, as opposed to the concentration needed. Consider `CCCN(CCC)C1CCc2ccc(O)cc2C1` (stereo not drawn), for which the Emax in [4] came to 61.4%.

Turning to `CCCN(CCN1CCN(c2ccccc2)CC1)C1CCc2nc(N)sc2C1` (single isomer, unassigned; (+)) [listing 1 of 2 here], the Ki is 1980 nM in [1] and 44 nM in experiment [3].

Regarding `CCCN(CCN1CCN(c2ccccc2OC)CC1)C1CCc2nc(N)sc2C1` (single isomer, unassigned; (+)) [listing 1 of 2 here], the figures for the Ki in [1] and in experiment [3] were 243 nM and 101 nM, respectively.

With `CCCN(CCN1CCN(c2ccccc2)CC1)C1CCc2nc(N)sc2C1` (single isomer, unassigned; (+)) [listing 2 of 2 here], the Ratio Ki in experiment [2] came out at 45.

Regarding `CCCN(CCN1CCN(c2ccccc2OC)CC1)C1CCc2nc(N)sc2C1` (single isomer, unassigned; (+)) [listing 2 of 2 here], the Ratio Ki in [2] came out at 2.4.

Usually EC50 stands for the midpoint of the concentration-response curve. Low values mean a more potent agent, high ones a less potent agent. Regarding `CCCN(CCN1CCN(c2ccc(-c3ccccc3)cc2)CC1)C1CCc2nc(N)sc2C1` (single isomer, unassigned; (-)), the values for the Activity entry in experiment [5], in experiment [6] and in [7] were “Dose-dependent effect”, 3866 and 2092, respectively. Moreover, the maximal effect (Emax) in experiment [4] is 119%. For the same compound, the Ki in [1] was 264 nM; in experiment [3] it was 0.92 nM. Moreover, the Ratio Ki in [2] is 253. Besides, the results for the EC50 in experiment [8] and in [9] were 0.085 nM and 19.9 nM, respectively.

Consider `CCCN(CCN1CCN(c2ccccc2OC)CC1)C1CCc2nc(N)sc2C1` (single isomer, unassigned; (-)) [listing 1 of 2 here], for which the inhibitory constant (Ki) in experiment [1] was determined as 288 nM; in experiment [3], 7.01 nM.

`CCCN(CCN1CCN(c2ccccc2OC)CC1)C1CCc2nc(N)sc2C1` (single isomer, unassigned; (-)) [listing 2 of 2 here]: the Ratio Ki in experiment [2] stood at 41.1.

For the compound `CCCN(CCN1CCN(c2ccccc2)CC1)C1CCc2nc(N)sc2C1` (stereo in doubt; 6a) [listing 1 of 2 here], the values for the Ki in experiment [1] and in experiment [3] were 639 nM and 5.96 nM, respectively.

Turning to `CCCN(CCN1CCN(c2ccccc2)CC1)C1CCc2nc(N)sc2C1` (stereo in doubt; 6a) [listing 2 of 2 here], the Ratio Ki in experiment [2] stood at 107.

For `CCCN(CCN1CCN(c2ccccc2OC)CC1)C1CCc2nc(N)sc2C1` (stereo in doubt; 6b) [listing 1 of 2 here], the Ki was 166 nM in experiment [1] and 5.09 nM in [3].

For the compound `CCCN(CCN1CCN(c2ccccc2OC)CC1)C1CCc2nc(N)sc2C1` (stereo in doubt; 6b) [listing 2 of 2 here], the Ratio Ki in experiment [2] came out at 32.6.

Take `CCCN(CCN1CCN(c2cccc(Cl)c2Cl)CC1)C1CCc2nc(N)sc2C1` (stereo in doubt; 6c) [listing 1 of 2 here]: the inhibition constant Ki in experiment [1] was 68.4 nM; in experiment [3], 1.82 nM.

Regarding `CCCN(CCN1CCN(c2cccc(Cl)c2Cl)CC1)C1CCc2nc(N)sc2C1` (stereo in doubt; 6c) [listing 2 of 2 here], in experiment [2], the Ratio Ki is 37.6.

Take `CCCN(CCN1CCN(c2cccc(Cl)c2Cl)CC1)C1CCc2nc(N)sc2C1` (stereo in doubt; (+)-33) [listing 1 of 2 here]: the Ki in experiment [1] turned out to be 44.2 nM; in [3], 12 nM.

As for `CCCN(CCN1CCN(c2cccc(Cl)c2Cl)CC1)C1CCc2nc(N)sc2C1` (stereo in doubt; (+)-33) [listing 2 of 2 here], the Ratio Ki in experiment [2] stood at 3.68.

`CCCN(CCN1CCN(c2ccccc2)CC1)C1CCc2nc(N)sc2C1` (stereo in doubt; (-)-31) [listing 1 of 2 here]: the Ki was determined as 243 nM in experiment [1] and 4.15 nM in experiment [3].

As for `CCCN(CCN1CCN(c2ccccc2)CC1)C1CCc2nc(N)sc2C1` (stereo in doubt; (-)-31) [listing 2 of 2 here], the Ratio Ki in experiment [2] was 58.6.

On to `CCCN(CCN1CCN(c2cccc(Cl)c2Cl)CC1)C1CCc2nc(N)sc2C1` (stereo in doubt; (-)-33) [listing 1 of 2 here], for which the Activity in experiment [6] stood at 2766; in experiment [7] it was 2281. The inhibitory constant (Ki) in experiment [1] was found to be 56.8 nM; in experiment [3] it was 1.8 nM. Besides, the EC50 stood at 0.06 nM in [8] and 13.4 nM in experiment [9].

With `CCCN(CCN1CCN(c2cccc(Cl)c2Cl)CC1)C1CCc2nc(N)sc2C1` (stereo in doubt; (-)-33) [listing 2 of 2 here], the Activity entry in [5] was “Dose-dependent effect”. For the same compound, the Emax in experiment [4] is 78.8%. Moreover, in [2], the Ratio Ki stood at 31.6.

Source of the values: ChEMBL document CHEMBL1150260 (J Med Chem, 2008).
